Literature values, collected in patent US20190224170A1, “THERAPIES AND METHODS TO TREAT INFLAMMATORY GASTROINTESTINAL DISEASES AND DISORDERS” (The Regents of the University of California, priority 2018, published 2019).

Test system: multiple sclerosis
Details: supplementation with high doses of biotin

O=C(O)CCCC[C@@H]1SC[C@@H]2NC(=O)N[C@@H]21 [biotin]
clinical response: distinctive positive clinical response
